# Assay results from patent publication US12433925B2, “Composition for photodynamic reaction containing extract of Ligularia fischeri as an effective ingredient, antimicrobial, antifungal and sterilization composition including the same, and sterilization method using the composition for photodynamic reaction” (KOREA INSTITUTE OF SCIENCE AND TECHNOLOGY, priority 2020, dated 2025).
# Experiments:
# [1] = test system: Staphylococcus aureus KCTC 3881; assay: Mouse splinted excisional wound model, wound size by caliper; format: in vivo, BALB/c mouse; details: no red light
# Procedure: (§1) A 7-week-old male BALB/c mouse (BALB-cAnNCr1jOri, Orientbio, Seongnam, South Korea) was housed for a week in a sterile animal room (SPF, Specific pathogen free) with a controlled air temperature of 22±2° C., a humidity of 50±10%, and the cycle of 12 hours of light and 12 hours of dark. The mice were anesthetized through an avertin intraperitoneal injection, a 5 mm wound was made therein using a biopsy patch, and a central portion of silicone drilled to an outside diameter of 15 mm and an inside diameter of 5 mm was stuck to fit the wound. Then, in the case of the experimental group, 10 μL of a physiological buffer solution (PBS) containing 10^9 CFU/mL of Staphylococcus aureus KCTC 3881 (S.A. bacterium) was inoculated into the wound site, which was then clogged with Tegaderm, and the back of the mice was wrapped with a compression bandage so that the wound site was not in contact with the outside.
# Two days after the infection with Staphylococcus aureus, in the case of the group treated with Ligularia fischeri ethanol according to Preparation Example 1(1), the wound was treated with 10 μL of a Ligularia fischeri ethanol extract (20 μg/mL), and in the case of the red light treated group, the wound was treated with red light LED (wavelength: 660 nm, 120 W/m^2) for 15 minutes. In addition, in the case of the Ligularia fischeri ethanol extract according to Preparation Example 1(1) and the red light-treated group, 10 μL of the Ligularia fischeri ethanol extract (20 μg/mL) was treated on the wound for 30 minutes and then red light (120 W/m^2) was treated for 15 minutes. […]
# The wound was treated in the same manner as above, even 4, 6, and 8 days after infection with Staphylococcus aureus, and the image of the wound site was obtained on Day 2, 4, 6, and 8 after infection with Staphylococcus aureus. The width and height of the wound site were measured using a caliper and the product obtained by multiplying the width with the height was used to calculate the wound size in mm^2. […]
# [2] = test system: Staphylococcus aureus KCTC 3881; assay: Mouse splinted excisional wound model, wound closure by H&E histology (distance between epidermis tips); format: in vivo, BALB/c mouse; details: no red light
# Procedure: as §1
# Two days after the infection with Staphylococcus aureus, in the case of the group treated with Ligularia fischeri ethanol according to Preparation Example 1(1), the wound was treated with 10 μL of a Ligularia fischeri ethanol extract (20 μg/mL), and in the case of the red light treated group, the wound was treated with red light LED (wavelength: 660 nm, 120 W/m^2) for 15 minutes. […]
# A wound size measurement is a measurement of apparently appearing wound scab and requires the task of histologically confirming whether the wound has been closed by an epidermis actually newly created inside the scab. To this end, the distance between the wound epidermis was measured. […]
# Example 1(1)+red light), and the ampicillin-treated group (S.A.bacteria+Ampicillin) on Day 8 after the wound is infected with Staphylococcus aureus (S.A.bacteria). […] At this time, statistical significance between Control (PBS) and S. A. bacteria-treated group was expressed as ^##p<0.001. Statistical significance with S. A. bacteria-treated group-treated group was expressed as *p<0.05 or […]. […]
compound,measurement,setting,value
"CC1(C)S[C@@H]2[C@H](NC(=O)[C@H](N)c3ccccc3)C(=O)N2[C@H]1C(=O)O [ampicillin, Ampicillin]",wound size compared to the group treated with S.A. bacteria,"[1]; Day 8, infected wound",no significant difference in wound size
same,"wound size, % of the initial wound size","[1]; Day 8, wound infected with S.A. bacteria, topical 10 μL",53.7%
same,"change in wound size, uninfected (PBS) wound",[1]; PBS (no S.A. infection),the change in wound size did not occur over time
same,"wound closure (epidermis formation, H&E)","[2]; Day 8, PBS (uninfected) wound",completely closed
same,distance between epithelial tips (wound maintained),"[2]; Day 8, infected wound",16.6%
same,histological wound size compared to the S.A. bacteria-treated group,"[2]; Day 8, infected wound",reduced
